This is an account of results in patent publication US20210292304A1 (HINOVA PHARMACEUTICALS INC., priority 2018, published 2021).

Data set [1] in a line: Metabolic stability in mouse liver microsomes. It counts as in vitro ADME. Conditions: 1 μM test drug, 0.5 mg/ml protein, 1 mM NADPH; for half-life at 1 μM: read-out: Half-life t1/2. The method, then:
(§1) 1. Preparation of NADPH solution (5 mM): An appropriate amount of NADPH standard was weighed and dissolved in phosphate buffer (1×PBS), that was mixed well and placed in an ice bath for use; Preparation of test compound solution: an appropriate amount of test substances were respectively weighed, and a solution with a suitable concentration was prepared with DMSO, to obtain stock solution I; an suitable amount of stock solution I was further diluted to 5 mM with 1×PBS to obtain stock solution II, that was stored in a refrigerator at 4° C. for later use; Preparation of liver microsome solution: the original solutions of rat, mouse, and human liver microsomes were respectively diluted to 0.833 mg/ml with PBS. 2. 60 μl of liver microsome solution was transferred to a 1 ml 96-well plate, to which was added 20 μl of the test drug solution (or probe substrate testosterone solution), and then pre-incubated for 5 min in a 37° C. thermomixer. 20 μl NADPH solution was added to start the reaction, and the contents of test drug, microsomal protein and NADPH in the reaction system were 1 μM, 0.5 mg/ml and 1 mM, respectively, and the content of DMSO in the system was not higher than 0.2%. Then, at 0, 15, 30, 45, 60 min (duplicated wells for each time point), 300 μl acetonitrile was added to stop the reaction (including the internal standard compound suitably selected).
(§2) 3. 20 μl NADPH was replaced with an equal volume of 1×PBS in the control group, and the contents of test drug and microsomal protein in the reaction system were 1 μM and 0.5 mg/ml, respectively, while the content of DMSO in the system was not higher than 0.2%. Respectively at 0 min and 60 min (duplicated wells at each time point), 300 μl acetonitrile was added to stop the reaction (including the internal standard compound suitably selected).
(§3) 4. After finishing the incubation time, the samples obtained by terminating the reaction were mixed, and centrifuged at 3200 rpm for 10 min, then the supernatant was collected for LC/MS/MS analysis.
(§4) 5. Data analysis: The peak area was determined from the extracted ion chromatogram. The slope value k was determined by linear regression of the natural logarithm obtained from the curve that was resulted from the remaining percentage of the parent drug vs the incubation time.
(§5) In vitro half-life (in vitro t1/2) was determined by the slope value: in vitro t1/2=−(0.693/k) In vitro CLint (in the unit of L/min/mg) was converted from the in vitro half-life t1/2 (minutes) using the following equation (the average of repeated determinations): […]
(§6) Scale up CLint (in the unit of mL/min/kg) was converted from in vitro t1/2 (minutes) by using the following formula (the average of repeated determinations): […]
For orientation: Microsomes from liver hold many membrane-bound enzymes, among them those of drug oxidation.

Data set [2] can be described thus: Metabolic stability in human liver microsomes. Format: in vitro ADME. Conditions: 1 μM test drug, 0.5 mg/ml protein, 1 mM NADPH, read-out: Half-life t1/2. The method, then:
as §1, §2, §3, §4, §5, §6

A further data set can be described thus: Pharmacokinetics in mice. Format: in vivo. Conditions: ICR, mouse, plasma, 5 mg/kg, po. 5 mpk; for AUC: read-out: Exposure dose AUC; for half-life: read-out: Half life T1/2 (converted); for Cmax: read-out: Peak concentration Cmax; for Tmax: read-out: Peak time Tmax. The text has this: 1) Experimental Materials and Instruments: • N,N-Dimethylacetamide (DMA), manufacturer: Sigma; Polyethylene glycol 400 (PEG400), manufacturer: Chengdu Kelon Chemical Reagent Factory; Hydroxypropyl β-cyclodextrin (HP-3-CD), manufacturer: Shanghai Dibai Chemical Technology Co., Ltd.; • HPC LF, manufacturer: Chengdu Yuannuo Tiancheng Technology Co., Ltd.; • Heparin sodium, manufacturer: Chengdu Kelon Chemical Reagent Factory; • Electronic analytical balance, model: SECURA225D-1CN; manufacturer: Sartorius Group, Germany; • Ultrasonic Cleaner, Model: AS10200; Manufacturer: Tianjin Automatic Science Instrument Co., Ltd.; • Pure water system, model: PURELAB Classic; manufacturer: ELGA Instrument Co., Ltd., Britain; • Vortex meter, model: VORTEXI; manufacturer: IKA Group, German; • High-speed refrigerated centrifuge, model: 21R; manufacturer: ThermoFisher Scientific (China) Co., Ltd.; • Electronic balance, model: XY1000-2C; manufacturer: Changzhou Xing Yun Electronic Equipment Co., Ltd.; • HPLC system, model: LC-20AD; manufacturer: SHIMADZU Instrument Company, Japan; • API4000 triple quadrupole mass spectrometer, manufacturer: Applied Biosystem, USA; • LC-20AD HPLC system (SHIMADZU (Shimadzu) Company, Japan); • PhenixWinnolin Pharmacokinetic software (Version 6.3, Certara, USA); • Analytical balance (Sartorius, SECURA225D-1CN); • Experimental animals: ICR mice (Chengdu Dossy Experimental Animal Co., Ltd.)
Group IV: The sample to be tested (1.15 mg) was accurately weighed, to which was first added 0.228 ml DMA to dissolve it, then were successively added 1.139 ml PEG400 and 5.012 ml of 0.1M phosphate buffer. Finally 40% HP-B-CD was added to a final volume of 11.39 ml. The mixture was sonicated, vortexed, and mixed well, to prepare a transparent and clear solution of 0.1 mg/ml. PO group: The sample to be tested (5.06 mg) was accurately weighed, and then 2% HPC LF (containing 0.1% Tween-80) was added to a final volume of 20.04 ml. The mixture was sonicated, vortexed, and mixed, to make a uniform suspension solution of 0.25 mg/ml.
Nine healthy adult ICR mice (three animals for each time point); after fasting overnight (free drinking water), they were administrated by tail vein and gavage, respectively; For the iv group, 5 min, 15 min, 0.5 h, 1 h, 2 h, 4 h, 8 h, 12 h, 24 h after administration, 0.1 ml blood was collected from the submandibular vein, centrifuged at 4° C. for 5 min to separate the plasma, and then it was stored at −20° C. for testing. In the po. group, 0.1 ml blood was collected from the submandibular vein prior to administration and 0.5 h, 1 h, 2 h, 4 h, 6 h, 8 h, 12 h, 24 h after administration, and the processing procedure was the same as that of the intravenous administration group. LC/MS/MS method was established to determine the plasma concentration of the original drug and draw the plasma concentration-time curve. WinNonlin 6.3 software was used to calculate the main pharmacokinetic parameters.

Each structure is given as a SMILES string.

Consider `[2H]c1c(Oc2c(Cl)cc(-n3nc(C#N)c(=O)[nH]c3=O)cc2Cl)n[nH]c(=O)c1C(C([2H])([2H])[2H])C([2H])([2H])[2H]` [Compound 11, 2-(3,5-dichloro-4-((4-deuterio-5-(1,1,1,3,3,3-hexadeuteropropan-2-yl)-6-oxo-1,6-dihydro-pyridazin-3-yl)oxy)phenyl)-3,5-dioxo-2,3,4,5-tetrahydro-1,2,4-triazine-6-carbonitrile], for which, in data set [1], the half-life at 1 μM came to 7.63 h. The half-life at 1 μM in data set [2] came to 19.6 h. In “Pharmacokinetics in mice”, the AUC – broadly, concentration integrated over time – worked out at 44100 ng·h/mL; the half-life was 4.7 h; the Cmax was 6500 ng/mL; the time of peak concentration (Tmax) (commonly the time at which the peak concentration occurs) worked out at 4 h.

Regarding `[2H]C([2H])([2H])C([2H])(c1cc(Oc2c(Cl)cc(-n3nc(C#N)c(=O)[nH]c3=O)cc2Cl)n[nH]c1=O)C([2H])([2H])[2H]` [Compound 2], in data set [1], the “Half-life t1/2” value is “∞”. Moreover, the half-life at 1 μM in data set [2] came to 21.2 h. Moreover, in the data set “Pharmacokinetics in mice”, the AUC stood at 21300 ng·h/mL, the half-life is 2.7 h, the Cmax was 2300 ng/mL and the time of peak concentration (Tmax) turned out to be 4 h.

As to `[2H]c1c(Oc2c(Cl)cc(-n3nc(C#N)c(=O)[nH]c3=O)cc2Cl)n[nH]c(=O)c1C([2H])(C([2H])([2H])[2H])C([2H])([2H])[2H]` [Compound 10, 2-(3,5-dichloro-4-((4-deuterio-5-(heptadeuteroisopropyl)-6-oxo-1,6-dihydro-pyridazin3-yl)oxy)phenyl)-3,5-dioxo-2,3,4,5-tetrahydro-1,2,4-triazine-6-carbonitrile], in data set [1], the half-life at 1 μM stood at 14.7 h. Also, the half-life at 1 μM in data set [2] was determined as 10.7 h. In addition, in the data set “Pharmacokinetics in mice”, the AUC worked out at 45900 ng·h/mL, the half-life is 3.47 h, the Cmax worked out at 7400 ng/mL and the Tmax came out at 4 h.
